According to patent publication US12371404B2, “Fused bicyclic alkylene linked imidodicarbonimidic diamides, methods for synthesis, and uses in therapy” (NovaTarg, Inc., priority 2016, dated 2025):
Counter-ions that a name gives are not always drawn.

Experiments:
[1] = molecular target: T1, human MATE1 (Homo sapiens, UniProt Q96FL8); assay: Oxygen consumption rate (OCR) assay, HEK293 cells transfected with MATE1; conditions: for inhibition at 1000 µM: HEK293, read-out: Oxygen Consumption Rate (OCR), MATE 1, % Inhibition at 1000 μM test concentration
T1 sequence (Q96FL8 1-570): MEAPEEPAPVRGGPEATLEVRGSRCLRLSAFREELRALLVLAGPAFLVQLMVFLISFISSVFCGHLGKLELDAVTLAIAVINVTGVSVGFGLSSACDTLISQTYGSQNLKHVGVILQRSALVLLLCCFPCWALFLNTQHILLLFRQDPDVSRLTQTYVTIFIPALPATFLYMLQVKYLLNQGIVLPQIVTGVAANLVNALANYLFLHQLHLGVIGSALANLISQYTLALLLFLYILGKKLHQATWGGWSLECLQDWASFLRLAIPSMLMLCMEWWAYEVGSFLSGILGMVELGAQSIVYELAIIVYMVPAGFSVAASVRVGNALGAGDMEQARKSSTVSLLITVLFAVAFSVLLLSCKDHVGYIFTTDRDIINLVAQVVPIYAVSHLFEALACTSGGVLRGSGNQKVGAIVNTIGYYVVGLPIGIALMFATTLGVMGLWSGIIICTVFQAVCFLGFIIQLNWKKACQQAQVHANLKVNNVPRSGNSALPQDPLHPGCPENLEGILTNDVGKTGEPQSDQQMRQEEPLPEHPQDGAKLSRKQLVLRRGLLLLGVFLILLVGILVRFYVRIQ
Excerpt: The compounds of the present invention are similarly tested in an oxygen consumption rate (OCR) assay to evaluate the functional activity of test compounds in cells.
(§1) In brief, the assay uses HEK293 cells stably transfected with the human OCT1, OCT2, OCT3, PMAT, or MATE1 transporters to determine a compound's relative transporter selectivity and its effect on the rate of oxygen consumption relative to control (Neo) cells. The MitoXpress Xtra oxygen-sensitive fluorophore is used to monitor oxygen consumption rates in the presence and absence of compound treatments. The analogs were tested at eight (8) different concentrations in triplicate to determine a relative IC50 value.
(§2) A summary description of the protocol is as follows:
(§3) Cells were incubated overnight to allow attachment. The outer columns (1 and 12) are not seeded with cells, as controls. The next day, plating medium was removed and replaced with 150 μL of assay medium (DMEM/F12 (PRF), 5% FBS, antibiotics) containing compound dilutions. A 3-fold serial dilution was prepared in the assay medium and transferred to the empty wells. The outer columns and column 11 received 150 μL of assay medium only. 10 μL of MitoXpress Xtra reagent was added to each test well, and 100 μL of pre-warmed mineral oil was overlayed in each well to create a seal. Dual read time-resolved fluorescence (BMG FluoStar Galaxy reader) was measured over 2 hours with measurements taken every 2 minutes. Excitation is 340 nm, Emission is 650 nm. For lifetime analysis, two measurements per well were taken: 1) delay of 30 μs, with a window of 30 μs; and 2) delay of 70 μs with a window of 30 μs. Background TRF values from A1-D1 were subtracted from all readings. A ratiometric analysis was performed to determine changes in the Lifetime fluorescence signal:Lifetime (μs) [T]=(D2−D1)/ln(W1/W2), where D is delay; W is fluorescence window value at each time point. Lifetime slopes were calculated using each Lifetime measurement over time. IC50 values were determined by plotting lifetime slope values vs. compound concentration.

[2] = system: control (Neo) cells; assay: Oxygen consumption rate (OCR) assay, control (Neo) HEK293 cells; assay type: cell-based; conditions: Homo sapiens; control (Neo) HEK293 cells; MitoXpress Xtra, 2 hours; read-out: Oxygen Consumption Rate (OCR) IC50, Neo
Excerpt: Diabetologia 2011, 54 (12): 3101-3110, each incorporated by reference with regard to such testing. The compounds of the present invention are similarly tested in an oxygen consumption rate (OCR) assay to evaluate the functional activity of test compounds in cells.
as §1, §2
as §3, with “HEK293 cells transformed with human organic cation transporters were plated in collagen coated, 96-well black-walled microclear plates (Greiner-Bio 1, #655956) at 60,000 cells per well in growth medium (DMEM (LG), 10% FBS, 400 μg/ml G418). Cells” for “Cells”

Row | Structure (SMILES) | inhibition at 1000 µM [1] [%] | IC50 [2] [µM] | IC50 [1] [µM]
1 | CCOc1ccc2[nH]cc(CCNC(=N)NC(=N)N)c2c1 [Ex 12, 1-[2-(5-ethoxy-1H-indol-3-yl)ethyl]imidodicarbonimide diamide trifluoroacetic acid salt] | -8 | 1150 | 
2 | N=C(N)NC(=N)NCCc1cn(CCO)c2ccccc12 [Ex 13, 1-[2-(1-(2-hydroxyethyl)-1H-indol-3-yl)ethyl]imidodicarbonimide diamide trifluoroacetic acid salt] | 22 | 2520 | 
3 | COc1cccc2[nH]cc(CCNC(=N)NC(=N)N)c12 [Ex 14, 1-[2-(4-methoxy-1H-indol-3-yl)ethyl]imidodicarbonimide diamide trifluoroacetic acid salt] | 39 | 1310 | 
4 | N=C(N)NC(=N)NCCc1c[nH]c2ccc(OCCO)cc12 [Ex 15, 1-(2-(5-(2-hydroxyethoxy)-1H-indol-3-yl)ethyl)imidodicarbonimide diamide trifluoroacetic acid salt] | -17 | > 10000 | 
5 | COc1ccc2[nH]c(C)c(CCNC(=N)NC(=N)N)c2c1 [Ex 19, 1-[2-(5-methoxy-2-methyl-1H-indol-3-yl)ethyl]imidodicarbonimide diamide, trifluoroacetic acid salt] | 14 | > 3000 | 
6 | N=C(N)NC(=N)NCCc1c[nH]c2ncccc12 [Ex 20, 1-(2-(1H-pyrrolo[2,3-b]pyridin-3-yl)ethyl)imidodicarbonimide diamide hydrochloride] |  | 605 | 
7 | CN(C)C(=N)NC(=N)NCCc1c[nH]c2ccc(F)cc12 [Ex 24, 3-(2-(5-fluoro-1H-indol-3-yl)ethyl)-1,1-dimethyl imidodicarbonimide diamide hydrochloride] |  | 1590 | > 10000
8 | N=C(N)NC(=N)NCCc1c[nH]c2ccc(C(F)(F)F)cc12 [Ex 25, 1-[2-(5-trifluoromethyl-1H-indol-3-yl)ethyl]imidodicarbonimide diamide, trifluoroacetic acid salt] | 44 | 51 | 
9 | N=C(N)NC(=N)NCCc1c[nH]c2c(F)cc(F)cc12 [Ex 27, 1-[2-(5,7-difluoro-1H-indol-3-yl)ethyl]imidodicarbonimide diamide, trifluoroacetic acid salt] |  | 291 | 
10 | N=C(N)NC(=N)NCCc1c[nH]c2cc(F)c(F)cc12 [Ex 28, 1-[2-(5,6-difluoro-1H-indol-3-yl)ethyl]imidodicarbonimide diamide, trifluoroacetic acid salt] |  | 604 | 
11 | Cc1[nH]c2ccc(F)cc2c1CCNC(=N)NC(=N)N [Ex 29, 1-[2-(5-fluoro-2-methyl-1H-indol-3-yl)ethyl]imidodicarbonimide diamide, trifluoroacetic acid salt] |  | > 100 | 
12 | CN(C)C(=N)NC(=N)NCCc1c[nH]c2ncccc12 [Ex 30, 1-(2-(1H-pyrrolo[2,3-b]pyridin-3-yl)ethyl)-1,1-dimethyl imidodicarbonimide diamide trifluoroacetic acid salt] |  | 864 | 
13 | CN(C)C(=N)NC(=N)NCCc1c[nH]c2ccc(OC(F)(F)F)cc12 [Ex 33, 3-(2-(5-trifluoromethoxy-1H-indol-3-yl)ethyl)-1,1-dimethyl imidodicarbonimide diamide hydrochloride] |  | 156 | 218
14 | Cc1cc2c(CCNC(=N)NC(=N)N)c[nH]c2cc1F [Ex 37, 1-[2-(6-fluoro-5-methyl-1H-indol-3-yl)ethyl]imidodicarbonimide diamide, trifluoroacetic acid salt] |  | 326 | 70
15 | N=C(N)NC(=N)NCCc1c[nH]c2c(Cl)cc(F)cc12 [Ex 38, 1-[2-(7-chloro-5-fluoro-1H-indol-3-yl)ethyl]imidodicarbonimide diamide, trifluoroacetic acid salt] |  | 8760 | 2050
16 | Cn1cc(CCNC(=N)NC(=N)N)c2cccnc21 [Ex 39, 1-(2-(1-methyl-1H-pyrrolo[2,3-b]pyridin-3-yl)ethyl)imidodicarbonimide diamide, trifluoroacetic acid salt] |  | 205 | 168
17 | N=C(N)NC(=N)NCCc1c[nH]c2ncc(Cl)cc12 [Ex 40, 1-(2-(5-chloro-1H-pyrrolo[2,3-b]pyridin-3-yl)ethyl)imidodicarbonimide diamide, trifluoroacetic acid salt] |  | > 1000 | 1470
18 | Cc1[nH]c2ncccc2c1CCNC(=N)NC(=N)N [Ex 44, 1-(2-(2-methyl-1H-pyrrolo[2,3-b]pyridin-3-yl)ethyl)imidodicarbonimide diamide, trifluoroacetic acid salt] |  | 1660 | 474
19 | N=C(N)NC(=N)NCCc1c[nH]c2nccc(Cl)c12 [Ex 46, 1-(2-(4-chloro-1H-pyrrolo[2,3-b]pyridin-3-yl)ethyl)imidodicarbonimide diamide, trifluoroacetic acid salt] |  | 2640 | 335
20 | N=C(N)NC(=N)NCCc1c[nH]c2ccc(F)c(Cl)c12 [Ex 47, 1-[2-(4-chloro-5-fluoro-1H-indol-3-yl)ethyl]imidodicarbonimide diamide, trifluoroacetic acid salt] |  | 101 | 22
21 | N=C(N)NC(=N)NCCc1c[nH]c2ccc(Cl)c(F)c12 [Ex 49, 1-[2-(5-chloro-4-fluoro-1H-indol-3-yl)ethyl]imidodicarbonimide diamide, trifluoroacetic acid salt] |  | 155 | 64
22 | N=C(N)NC(=N)NCCc1c[nH]c2cc(F)c(F)c(F)c12 [Ex 50, 1-[2-(4,5,6-trifluoro-1H-indol-3-yl)ethyl]imidodicarbonimide diamide, trifluoroacetic acid salt] |  | 181 | 102
23 | N=C(N)NC(=N)NCCc1c[nH]c2c(F)c(Cl)ccc12 [Ex 51, 1-[2-(6-chloro-7-fluoro-1H-indol-3-yl)ethyl]imidodicarbonimide diamide, trifluoroacetic acid salt] |  | 542 | 597
24 | Cn1cc(CCNC(=N)NC(=N)N)c2ccc(F)cc21 [Ex 52, 1-[2-(6-fluoro-1-methyl-1H-indol-3-yl)ethyl]imidodicarbonimide diamide, trifluoroacetic acid salt] |  | 388 | 32
25 | CN(C)C(=N)NC(=N)NCCc1c[nH]c2ccc(Cl)cc12 [Ex 53, 3-(2-(5-chloro-1H-indol-3-yl)ethyl)-1,1-dimethyl imidodicarbonimide diamide trifluoroacetic acid salt] |  | 422 | 398
